Experimental findings from US20260000645A1, “USE OF EBSELEN OR ONE OF THE DERIVATIVES THEREOF TO TREAT MITOCHONDRIAL PATHOLOGIES OR DYSFUNCTIONS” (ASSOCIATION FRANCAISE CONTRE LES MYOPATHIES, priority 2022, published 2026) are described below.

Series [1] deals with mutant yeast strain taz1. The experiment in a line: Respiratory growth in liquid culture (bioscreen, OD600). Type of series: cell-based, Saccharomyces cerevisiae. Particulars: taz1, liquid respiratory medium. How it is done:
In order to determine the optimum concentration of EBS leading to the suppression of a respiratory growth defect of the mutant yeast strain, cells undergoing exponential growth were inoculated in fresh Ethanol YPA non-fermentable media supplemented or not supplemented with increasing concentrations of EBS. The growth of cells in the liquid respiratory medium was monitored using the bioscreen system over a period of 80 h during which (OD600 nm) cell densities were sampled every 20 minutes.

Series [2] relates to Cox2 protein in mutant strain taz1. Nature of the series: Accumulation of Cox2 protein (SDS-PAGE/immunoblot) in taz1. Format: cell-based, Saccharomyces cerevisiae. Particulars: 1 μM of EBS. The protocol: (§1) Total protein extracts from the mutant yeast strain were analyzed by SDS-PAGE ([…] per well) using antibodies against the indicated proteins. The gels shown are representative of at least 3 experiments. Protein levels were quantified using the ImageJ software. The levels of Cox2 were normalized with respect to Ade13p and expressed with respect to the wild type (WT) strain.
(In general: Immunoblotting shows a protein as a band on a membrane.)

Series [3] relates to mutant yeast strain sym1. Nature of the series: Cellular respiration (OROBOROS oxygraph) in sym1. Format: cell-based, Saccharomyces cerevisiae. Particulars: EBS 1 μM, compared to non-treated cells. The protocol: Respiratory intensity corresponds to the amount of oxygen consumed with respect to time and the number of cells. It reflects the mitochondrial oxidative metabolism of the cells. The consumption of oxygen was measured using the OROBOROS oxygraph system. The cells were cultivated over 7-8 generations at 28° C. for 24 to 48 h in an Ethanol YPA medium supplemented by DMSO or EBS (1 μM). 10^7 cells were introduced into the oxygraph. The consumption of O2 was recorded with or without CCCP (maximum rate of oxygen consumption). The rate of O2 consumption was calculated on the basis of the linear part of the O2 consumption.
(§2) The experiments described in example 2 were implemented on the mutant yeast strain sym1.
(§3) The data are the averages ±SEM of at least three independent experiments. The significance of the variations between samples and the controls were estimated using the multi-factorial Anova: Tukey test.

Series [4] concerns Cox2 protein in mutant yeast strain sym1. The experiment in a line: Accumulation of Cox2 protein in sym1. Format: cell-based, Saccharomyces cerevisiae. Particulars: EBS 1 μM, compared to non-treated cells. The protocol: as §1, §2, §3
The subject of series [5] is mutant Pa nuo-51^A357V. The experiment in a line: Growth halo of heat sensitive complex I mutant at 33° C. Particulars: 20 nmoles of EBS, 4-5 days. Format: cell-based, Podospora anserina. How it is done:
The strain used in the following examples contains a specific mutation modeling a human mutation in the sub-unit NDUFV1 of complex I leading to a mitochondrial illness. This strain has a growth defect at a non-permissive temperature greater than 31.5° C.
nuo-51^A357V: The mutation A357V was introduced into the gene nuo-51 of the wild type strain S along with a resistance cassette of nourseothricin (NatR). In order to mimic the human illness NDUFV1A341V, the genes NDI-1 and AOX were deactivated (El-Khoury et al., (2008) Curr Genet. 53:249-58)
The heat sensitive mutant Pa nuo-51^A357V was homogeneously spread on sterile glass beads on a square Petri dish containing a solid minimal medium (M2). Small sterile filters were then placed on the agar-agar surface and 20 nmoles of EBS were added. DMSO (the vehicle of the compound) was used as a negative control. The plate was then incubated at the non-permissive temperature of 33° C. for 4-5 days then photographed.

The test system of series [6] is fibroblasts of TAZ patients. Nature of the series: Respiratory growth/proliferation of fibroblasts of TAZ patients (SRB, low glucose). Format: cell-based, human. The protocol: EBS was tested for the effect thereof on the respiratory growth of fibroblasts of TAZ patients, as opposed to fibroblasts from eight different patients, carriers of mutations in the TAZ gene (suffering from Barth's syndrome).
The rate of proliferation was measured in a medium with a weak concentration of glucose (1 g/L; to force cells to use the OXPHOS system rather than glycolyse) in 384 well micro-titration plates (1200 cells/wells at T0) using the Sulforhodamine B (SRB) staining protocol at 24, 48, 72 or 96 hours after placing the cells with or without 12.15 nM of EBS.
The data are the average of 8 patients or 3 controls in triplicate, in 4 independent experiments.
The rate of proliferation was then measured under the same experimental conditions but with variable concentrations of ethaselen: The cells were analyzed 96 hours after treatment with increasing doses of ethaselen (from 150 pM to 26.1 μM). The bars represent the average of 4 replicates coming from 2 patients in 3 independent experiments.

Series [7] deals with myoblasts of a TAZ patient. Nature of the series: Growth of myoblasts of TAZ patients (SRB, low glucose, 120 hours). Type of series: cell-based, human. The protocol: EBS was also tested for the ability thereof to restore cell growth of a line of myoblasts from patients, carriers of mutations in the TAZ gene. The rate of proliferation was measured in a medium with a weak concentration of glucose in 384 well micro-titration plates (1200 cells/wells at T0) using the Sulforhodamine B (SRB) staining protocol at 48, 72, 96 or 120 hours after placing the cells.

Series [8] concerns HeLa KO FMC1. Nature of the series: Proliferation of HeLa KO FMC1 cell line (SRB). Format: cell-based, human. Particulars: glucose 1 g/L or galactose; 96 hours; dose-dependent, wide range of concentrations (pM to μM). The protocol: The cell line HeLa KO FMC1, mimicking human illnesses related to a deficiency of ATP synthase (NARP, MILS syndromes), were generated by the CRISPR-Cas9 method. The cell line HeLa KO FMC1 was cultivated in a DMEM medium containing 4.5 g/L of glucose and 110 mg/l of pyruvate and 50 mg/l of uridine.
The rate of proliferation of this HeLa cell line in which the gene FMC1 was deleted was measured in a medium containing either a low concentration of glucose (1 g/L), or of galactose in micro-plates of 384 wells (4500 cells/cm^2 at T0) using the Sulforhodamine B (SRB) staining protocol 96 hours after seeding and treatment of the cells. The bars represent the average of 8 replicates coming from 3 independent experiments.

A short description of series [9]: Weight of KO mice lacking the TAZ gene (mouse model of Barth syndrome). Format: in vivo. Particulars: 10 mg/kg force-fed twice a day from age 51 days, 1 month; vs solvent. How it is done:
Mice lacking the TAZ gene (KO model of Barth syndrome) or wild type (WT) gene were force-fed twice a day with 10 mg/kg of Ebselen as of an age of 51 days. The weight was regularly monitored during 1 month of treatment.

Where [10] appears, read: 96 hours, vs negative control DMSO.

In the case of `O=c1c2ccccc2[se]n1-c1ccccc1` [ebselen, 2-phenyl-1,2-benzisoselenazol-3(2H)-one], in series [1], the “active concentration range, lower limit” value is on record as at least 1 nM; the “active concentration range, upper limit” value is at most 3 µM; the optimum concentration worked out at 1 µM. The compound also gave a toxic concentration in series [1] (80 h) of at least 27 µM. Besides, the “accumulation of the protein Cox2” value in [2] was “increases”. Further, the cell respiration entry in series [3] is recorded as “increased”. For the same compound, in [4], the “level of Cox2” value is recorded as “increased”. Besides, the “growth of the mutant (growth halo)” value in series [5] was “positive effect”. The toxicity concentration in series [6] (96 hours, fibroblasts of TAZ patients) was over 234.9 µM. In series [6] (setting [10]), the “concentration range improving respiratory growth/proliferation, lower limit” value is reported as at least 1.35 nM and the “concentration range improving respiratory growth/proliferation, upper limit” value is at most 8.7 µM. For the same compound, in series [6] (EBS 12.15 nM, glucose 1 g/L, 24, 48, 72, 96 hours), the “respiratory growth of fibroblasts of TAZ patients” value is recorded as “improves”. For the same compound, the “time after which EBS is effective” value in series [6] (EBS 12.15 nM, more pronounced at 48, 72 and 96 hours) stood at 24 h. In [7], this compound returned a toxicity concentration of over 78.3 µM. Also, in series [7] (vs DMSO), the concentration range with beneficial effects on growth, lower limit was at least 450 nM and the “concentration range with beneficial effects on growth, upper limit” value is at most 8.7 µM. The “proliferation of model cells of an ATP synthase deficiency” value in [8] is recorded as “improves”. The “weight of KO mice” value in [9] was “seemed to take on more weight”.
